Assay results reported in patent US8592405B2, “Synergistic antimicrobial composition” (Dow Global Technologies LLC, priority 2009, dated 2013).
“And” between values parts separate entries of the source, which are not always exact repeats. Equal entries are not always repeated.

How the values were obtained:
Format in all cases: cell-based
[1] = system: Aa + Ap (Alternaria alternata + Aureobasidium pullulans); experiment: Fungal efficacy testing, modified ASTM 5590 (6-well, mixed inoculum, Example 4); settings: four weeks; for Total conc, ppm: Aa + Ap mixed inoculum, NE = no end point at the concentration tested; for % inhibition: Aa + Ap, at the Total conc
Method: [The source words this procedure for another target and reports this target under the same test.] (§1) The SI is calculated based on F. C. Kull et.
(§2) A single or blend of biocides was post added into white acrylic latex paint free of biocides to give a maximum total active ingredient/s concentration tested. This paint was then diluted with a biocide free acrylic latex paint at concentrations range of 75 to 12.5% w/w to give desired concentrations for the testing. Depending on the type of biocide blends tested, the total biocides concentrations varies from 200 to 5000 ppm. After biocides addition or dilution each sample was hand mixed for at least a minute until uniformity is achieved. Each of the paint samples as well as a control sample (containing no biocide) were used to prepare films on black plastic-vinyl chloride/acetate copolymer panels (LENETA, Mahwah, N.J.) using a 3 mil bird bar applicator. The panels were thoroughly dried for at least 2 days avoiding direct exposure to sunlight. Square discs (0.5 inch^2, 13 mm^2) were cut out from each panel and were used as the substrate for fungal and algal efficacy tests. This sample size allowed for an agar border when the sample disc was placed into the well of the test plate. Each sample was tested in duplicate
(§3) The appropriate media (BOLD'S 3N for Chlorophytes, BG-11 for Cyanobacteria, and PDA for fungi) were used to support microbial growth. The test plates were maintained at room temp (25° C.-26° C.), in a cycled light-dark environment, for four weeks for algae. Plates for fungal challenge tests were maintained at 30 C for four weeks. At the end of the incubation period the samples were scored for percent area covered by visible microbial growth.
(§4) ASTM 5590 is a standard accelerated test method for determining resistance of various coatings (including paints) to fungal defacement. To accommodate for high-throughput screening, this method was scaled down from petri plates to 6-well plates. To set up the test, an agar plug was placed at the bottom of each well of the sterile 6-well plate. A single coupon was placed with a pair of sterile forceps at the center of the agar plug (on top) with the painted surface facing upwards. Fungal inoculums were prepared by mixing equal concentrations (1×10^6 cfu/ml) and equal volumes (depending on number of samples to be tested) of like growing organisms. Cladosporium herbarum was mixed with Aureobasidium pullulans. Aspergillus niger was mixed with Penicillium funiculosum. Alternaria alternata was mixed with Trichoderma viride. Each well was inoculated with 400 μl of organism mixture (1×10^6 cfu/ml) making sure that the whole surface (paint film as well as the agar surrounding it) was evenly covered. The plates were incubated at 30° C. in presence of moisture, for a period of four weeks. The total percent area covered was evaluated and recorded at the end of each week after the 2nd week and recorded in increments of 5%.

[2] = system: An + Pf (Aspergillus niger + Penicillium funiculosum); experiment: as above; settings: four weeks; for Total conc, ppm: An + Pf mixed inoculum, NE = no end point at the concentration tested; for % inhibition: An + Pf, at the Total conc
Method: as §1, §2, §3, §4

[3] = system: Ch + Tv (Cladosporium herbarum + Trichoderma viride); experiment: as above; settings: four weeks; for Total conc, ppm: Ch + Tv mixed inoculum, NE = no end point at the concentration tested; for % inhibition: Ch + Tv, at the Total conc
Method: [The source words this procedure for another target and reports this target under the same test.] as §1, §2, §3, §4

[4] = system: Cp + To + Ta (Calotrix parientina, Trentepohlia odorata, Trentepohlia aurea); experiment: Algal efficacy testing, modified ASTM 5589 (6-well, mixed inoculum, Example 4); settings: four weeks; for Total conc, ppm: Cp + To + Ta mixed inoculum, NE = no end point at the concentration tested; for % inhibition: Cp + To + Ta, at the Total conc
Method: as §2, §3
(§5) ASTM 5589 is a standard accelerated test method for determining resistance of various coatings (including paints) to algal defacement. To accommodate for high-throughput screening, this method was scaled down from petri plates to 6-well plates. A single coupon was placed with a pair of sterile forceps at the center of the agar plug (on top) with the painted surface facing upwards. Algal inoculums were prepared by mixing equal concentrations (1×10^6 cfu/ml) and equal volumes (depending on number of samples to be inoculated) of like growing organisms. In this study, Gloeocapsa sp. and Oscillatoria sp. were a mix of cyanobacteria grown on BG-11 media. Chlorella sp., Chlorella kessleri, and Nostoc commune are unicellular chlorphytes that were mixed and grown on Bold media. Trentepohlia aurea, Trentepohlia odorata, and Calotrix parientina are filamentous algae that were mixed and grown on Bold media. Each well was inoculated with 400 μl of organism mixture (1×10^6 cfu/ml) making sure that the whole surface (paint film as well as the agar surrounding it) was evenly covered. The plates were incubated at room temp (25° C.-26° C.) with cyclic exposure to light (OTT-Lite model #OTL4012P, 40 Watt, 26 KLumen) and dark phases, for a period of four weeks. The total area covered was evaluated at the end of each week according to percent area covered in 5% increments. While rating the plates, notations were made for zones of inhibition.

[5] = system: Cs + Ck + Nc (Chlorella sp., Chlorella kessleri, Nostoc commune); experiment: as above; settings: four weeks; for Total conc, ppm: Cs + Ck + Nc mixed inoculum, NE = no end point at the concentration tested; for % inhibition: Cs + Ck + Nc, at the Total conc
Method: as §2, §3, §5

[6] = system: Gs + Os (Gloeocapsa sp. + Oscillatoria sp.); experiment: as above; settings: four weeks; for Total conc, ppm: Gs + Os mixed inoculum, NE = no end point at the concentration tested; for % inhibition: Gs + Os, at the Total conc
Method: as §2, §3, §5

[7] = system: Calothrix parientina (Cp); experiment: Algal efficacy testing, modified ASTM 5589 (12-well, dry paint film); settings: three weeks
Method: (§6) Samples of white acrylic latex paint free of biocides were prepared in 50 ml aliquots. Each biocide was post added to give the necessary active ingredient concentration in the paint. The total biocides concentrations tested were 750, 1500, 2500 and 5000 ppm. After biocides addition, each sample was hand mixed for a minimum of 30 sec, followed by a 3 min run on the paint shaker (RED DEVIL). Each of the paint samples as well as a control sample (containing no biocide) were used to prepare films on black plastic-vinyl chloride/acetate copolymer panels (LENETA, Mahwah, N.J.) using a 3 mil bird bar applicator. The panels were thoroughly dried for 5 days avoiding direct exposure to sunlight. Square discs (15 mm^2) were cut out from each panel and were used as the substrate for fungal and algal efficacy tests. This sample size allowed for an agar border when the sample disc was placed into the well of the test plate.
(§7) The appropriate media (BOLD'S 3N for Chlorophytes, BG-11 for Cyanobacteria, and PDA for fungi) were used to support microbial growth. The test plates were maintained at room temp (25° C.-26° C.), in a cycled light-dark environment, for 3 weeks for algae. Plates for fungal challenge tests were maintained at 30C for three weeks. At the end of incubation period the samples were scored for percent area covered by visible microbial growth.
(§8) ASTM 5589 is a standard accelerated test method for determining resistance of various coatings (including paints) to algal defacement. To accommodate for high-throughput screening, this method was scaled down from petri plates to 12-well plates. A single coupon was placed with a pair of sterile forceps at the center of the agar plug (on top) with the painted surface facing upwards. Each well was inoculated with 150 μl of organism (1×10^8 cfu/ml) making sure that the whole surface (paint film as well as the agar surrounding it) was evenly covered. The plates were incubated at room temp (25° C.-26° C.) with cyclic exposure to light (OTT-Lite model #OTL4012P, 40 Watt, 26 KLumen) and dark phases, for a period of three weeks. The total area covered was evaluated at the end of each week according to percent area covered in 5% increments. While rating the plates, notations were made for zones of inhibition.
as §1

[8] = system: Chlorella sp. + Chlorella kessleri (Cs + Ck); experiment: as above; settings: at the Total conc, three weeks
Method: as §6, §7, §8, §1

[9] = system: Gleocapsa sp. (Gs); experiment: as above; settings: at the Total conc, three weeks
Method: as §6, §7, §8, §1

[10] = system: Nostoc commune (Nc); experiment: as above; settings: three weeks
Method: as §6, §7, §8, §1

[11] = system: Oscillatoria sp. (Os); experiment: as above; settings: at the Total conc, three weeks
Method: as §6, §7, §8, §1

[12] = system: Trentepohlia aurea + Trentepohlia odorata (Ta + To); experiment: as above; settings: three weeks
Method: as §6, §7, §8, §1

[13] = system: Aspergillus niger (An); experiment: Fungal efficacy testing, modified ASTM 5590 (12-well, dry paint film); settings: three weeks
Method: as §6, §7
as §4, with “12-well” for “6-well”, “upwards.” for “upwards. Fungal inoculums were prepared by mixing equal concentrations (1×10^6 cfu/ml) and equal volumes (depending on number of samples to be tested) of like growing organisms. Cladosporium herbarum was mixed with Aureobasidium pullulans. Aspergillus niger was mixed with Penicillium funiculosum. Alternaria alternata was mixed with Trichoderma viride.”, “150” for “400”, “organism” for “organism mixture”, “three” for “four”, “5%. […]” for “5%.”

[14] = system: Alternaria alternata (Aa); experiment: as above; settings: at the Total conc, three weeks
Method: as §6, §7
as §4, with “12-well” for “6-well”, “upwards.” for “upwards. Fungal inoculums were prepared by mixing equal concentrations (1×10^6 cfu/ml) and equal volumes (depending on number of samples to be tested) of like growing organisms. Cladosporium herbarum was mixed with Aureobasidium pullulans. Aspergillus niger was mixed with Penicillium funiculosum. Alternaria alternata was mixed with Trichoderma viride.”, “150” for “400”, “organism” for “organism mixture”, “three” for “four”
as §1

[15] = system: Aureobasidium pullulans (Ap); experiment: as above; settings: at the Total conc, three weeks
Method: as §6, §7
as §4, with “12-well” for “6-well”, “upwards.” for “upwards. Fungal inoculums were prepared by mixing equal concentrations (1×10^6 cfu/ml) and equal volumes (depending on number of samples to be tested) of like growing organisms. Cladosporium herbarum was mixed with Aureobasidium pullulans. Aspergillus niger was mixed with Penicillium funiculosum. Alternaria alternata was mixed with Trichoderma viride.”, “150” for “400”, “organism” for “organism mixture”, “three” for “four”
as §1

[16] = system: Cladosporium herbarum (Ch); experiment: as above; settings: at the Total conc, three weeks
Method: as §6, §7
as §4, with “12-well” for “6-well”, “upwards.” for “upwards. Fungal inoculums were prepared by mixing equal concentrations (1×10^6 cfu/ml) and equal volumes (depending on number of samples to be tested) of like growing organisms. Cladosporium herbarum was mixed with Aureobasidium pullulans. Aspergillus niger was mixed with Penicillium funiculosum. Alternaria alternata was mixed with Trichoderma viride.”, “150” for “400”, “organism” for “organism mixture”, “three” for “four”
as §1

[17] = system: Penicillium funiculosum (Pf); experiment: as above; settings: at the Total conc, three weeks
Method: as §6, §7
as §4, with “12-well” for “6-well”, “upwards.” for “upwards. Fungal inoculums were prepared by mixing equal concentrations (1×10^6 cfu/ml) and equal volumes (depending on number of samples to be tested) of like growing organisms. Cladosporium herbarum was mixed with Aureobasidium pullulans. Aspergillus niger was mixed with Penicillium funiculosum. Alternaria alternata was mixed with Trichoderma viride.”, “150” for “400”, “organism” for “organism mixture”, “three” for “four”
as §1

[18] = system: Stachybotris chartarum (Sc); experiment: as above; settings: three weeks
Method: as §6, §7
as §4, with “12-well” for “6-well”, “upwards.” for “upwards. Fungal inoculums were prepared by mixing equal concentrations (1×10^6 cfu/ml) and equal volumes (depending on number of samples to be tested) of like growing organisms. Cladosporium herbarum was mixed with Aureobasidium pullulans. Aspergillus niger was mixed with Penicillium funiculosum. Alternaria alternata was mixed with Trichoderma viride.”, “150” for “400”, “organism” for “organism mixture”, “three” for “four”
as §1

[19] = system: Trichoderma viride (Tv); experiment: as above; settings: three weeks
Method: as §6, §7
as §4, with “12-well” for “6-well”, “upwards.” for “upwards. Fungal inoculums were prepared by mixing equal concentrations (1×10^6 cfu/ml) and equal volumes (depending on number of samples to be tested) of like growing organisms. Cladosporium herbarum was mixed with Aureobasidium pullulans. Aspergillus niger was mixed with Penicillium funiculosum. Alternaria alternata was mixed with Trichoderma viride.”, “150” for “400”, “organism” for “organism mixture”, “three” for “four”
as §1

[20] = total biocide in paint taken as minimum inhibitory concentration
[21] = total biocide in paint taken as minimum inhibitory concentration, 30 C

| Molecule | Total conc, ppm [1] [ppm] | % inhibition [1] [%] | Total conc, ppm [2] [ppm] | % inhibition [2] [%] | Total conc, ppm [3] [ppm] | % inhibition [3] [%] | Total conc, ppm [4] [ppm] | % inhibition [4] [%] | Total conc, ppm [5] [ppm] | % inhibition [5] [%] | Total conc, ppm [6] [ppm] | % inhibition [6] [%] | other results |
| --- | --- | --- | --- | --- | --- | --- | --- | --- | --- | --- | --- | --- | --- |
| CCCCCCCCn1sccc1=O [OIT, 2-n-octyl-4-isothiazolin-3-one] | 1350 | 100 | 450 | 100 | 450 | 50 | 1350 | 95 | 1350 | 100 | 1350 | 100 | – |
| CCCCNC(=O)OCC#CI [IPBC, 3-iodo-2-propynyl-butylcarbamate] | – | – | – | – | – | – | – | – | – | – | – | – | % inhibition ([7]; at the Total conc): 97.5% and 90% and 80%; Total conc, ppm [7, 20]: 2500 ppm and 5000 ppm; % inhibition [8]: 97.5% and 90% and 70%; % inhibition [9]: 95% and 50% and 80%; % inhibition ([10]; at the Total conc): 87.5% and 90% and 80%; Total conc, ppm [10, 20]: 1500 ppm and 2500 ppm; % inhibition [11]: 70% and 62.5% and 77.5%; % inhibition ([12]; at the Total conc): 85% and 82.5% and 72.5%; Total conc, ppm [12, 20]: 2500 ppm and 1500 ppm; % inhibition ([13]; at the Total conc): 87.5% and 80% and 75%; Total conc, ppm [13, 21]: 2500 ppm and 1500 ppm; % inhibition [14]: 97.5% and 50% and 100%; % inhibition [15]: 97.5% and 60% and 87.5%; % inhibition [16]: 75% and 80%; % inhibition [17]: 97.5% and 60% and 70%; % inhibition ([18]; at the Total conc): 82.5%; Total conc, ppm [18, 21]: 2500 ppm; % inhibition ([19]; at the Total conc): 90% and 72.5% and 62.5%; Total conc, ppm [19, 21]: 750 ppm and 1500 ppm |
| zinc pyrithione [ZPT] | 2500 | 100 | 1250 | 100 | – | – | 625 | 100 | 1250 | 100 | 625 | 100 | – |
| c1ccc2[nH]c(-c3cscn3)nc2c1 [TBZ, thiabendazole] | 3750 | 80 | 625 | 100 | 2500 | 50 | 1875 | 95 | 1250 | 100 | 1875 | 100 | – |
